A short description of this data set: in vivo. The conditions noted are these: mouse, ip. The protocol: To determine this toxicity, C.F.L.P. strain albino mice of both sexes, weighing between 19 and 25 grams, have been used as experimental animals. After an 18 hour fast period with water "ad libitum" the derivatives which are the subjects of the present invention are administered intraperitoneally in 5% suspension in gum arabic. The volume of suspension administered has in all cases been 0.4 ml/20 grams (20 ml/kg), changing the concentration of the suspension according to the dose administered.
One hour after the administration of the derivatives, the animals are supplied with Panlab standard rat-mouse feed. The period of observation of mortality has been 7 days.

By LD50 is commonly meant the dose at which mortality reaches 50%.

The structures appear in SMILES notation.

Compound `CCn1cc(C(=O)O)c(=O)c2ccc(C)nc21` [Nalidixic acid, reference compound] displayed an LD50 at 168 h of 600 mg/kg.

These data come from patent publication US4552882A, “7-(1-Pyrrolyl) derivatives of 1-ethyl-1,4-dihydro-4-oxoquinoline-3-carboxylic acids and 1-ethyl-1,4-dihydro-4-oxo-1,8-naphthyridine-3-carboxylic acids and their use as antimicrobial agents” (Provesan, SA, priority 1983, dated 1985).
